# Test results as given in patent EP0257285A2, “Method and compositions for reducing the intraocular pressure of mammals” (Whitby Research Incorporated, priority 1986, dated 1988).
# Like-named read-outs stand apart in the source and are kept apart here.
# How the values were obtained:
# monkeys = details: Curr. Eye Res. 2, 281-288; cited from earlier work
# rabbits = details: cited from earlier work
# Cebus apella monkeys = experiment: Intraocular pressure (IOP) measurement after topical unilateral application to the eye of monkeys; format: in vivo; details: female Cebus apella monkeys, 50ul aliquots, doses 0.165, 0.5 and 1.65 mg, IOP at 0.5, 1, 2, 3, 4 and 5 hours post drug, compared to vehicle alone
# Procedure: Male, albino New Zealand rabbits, and female Cebus apella monkeys are used in the example. Rabbits are used primarily to screen for undue ocular toxicity of 2-(N-propyl-N-2-phenylethylamino)-5-hydroxytetralin (active compound) before conducting experiments in monkeys.
# A racemic mixture of 2-(N-propyl-N-2-phenylethylamino)-5-hydroxytetralin (active compound) is dissolved in distilled water (vehicle or carrier) on the day of the experiment. Solutions are administered in a masked manner, that is, solutions are prepared by a person that was neither involved in drug administration nor measurement of intraocular pressure (IOP) and pupil diameter (PD). The solution of the active compound is applied unilaterally with the contralateral (fellow) eye receiving vehicle only. Five monkeys are treated bilaterally with vehicle; one to two vehicle-treated monkeys are included each time a different dose of the active compound is used. Doses of active compound tested are: 0.165, 0.5 and 1.65 mg.
# After taking two baseline (0 time) measurements, aliquots (50ul) of the solution of active compound and/or vehicle, only, are administered topically. Subsequently, IOP measurements are made at 0.5, 1, 2, 3, 4 and 5 hours post drug.
# [1] = rabbits, Curr. Eye Res. 2, 281-288 and 3, 307-314
Structure (SMILES),intraocular pressure of monkeys (monkeys),intraocular pressure of rabbits (rabbits; [1]),"intraocular pressure of rabbits (rabbits; rabbit, in vivo)",intraocular pressure (Cebus apella monkeys)
CCCN1C[C@H](CSC)C[C@@H]2c3cccc4[nH]cc(c34)C[C@H]21 [pergolide],lowered the intraocular pressure of monkeys,lower the intraocular pressure of rabbits,,
CC(C)C[C@H]1C(=O)N2CCC[C@H]2[C@]2(O)O[C@](NC(=O)[C@@H]3C=C4c5cccc6[nH]c(Br)c(c56)C[C@H]4N(C)C3)(C(C)C)C(=O)N12 [Bromocriptine],,,lower the intraocular pressure of rabbits,
CN1C[C@H](CC#N)C[C@@H]2c3cccc4[nH]c(Cl)c(c34)C[C@H]21 [lergotrile],lowered the intraocular pressure of monkeys,lower the intraocular pressure of rabbits,,
"CCCN(CCc1ccccc1)C1CCc2c(O)cccc2C1 (racemic) [active compound, 2-(N-propyl-N-2-phenylethylamino)-5-hydroxytetralin]",,,,effectively lower the intraocular pressure
